Measurements published in ChEMBL document CHEMBL4507288 (2021).

How the values were obtained:
[1] = target: Alpha-2C adrenergic receptor (Homo sapiens, UniProt P18825); assay: GPCRScan assay: inhibition of Alpha2C; design: radioligand conc. used [nm] 0.5 – 1.0, parental cells stable MDCK
[2] = target: Mitogen-activated protein kinase kinase kinase kinase 5 (Homo sapiens) (UniProt Q9Y4K4); conditions: Compound concentration 1000.0 nM
[3] = target: Myosin-IIIb (Homo sapiens) (UniProt Q8WXR4); conditions: Compound concentration 1000.0 nM
[4] = target: Rhodopsin kinase GRK7 (Homo sapiens) (UniProt Q8WTQ7); conditions: Compound concentration 1000.0 nM
[5] = target: Phosphatidylinositol 5-phosphate 4-kinase type-2 gamma (Homo sapiens) (UniProt Q8TBX8); conditions: Compound concentration 1000.0 nM
Sequence of Phosphatidylinositol 5-phosphate 4-kinase type-2 gamma (Homo sapiens) (Q8TBX8 whole entry): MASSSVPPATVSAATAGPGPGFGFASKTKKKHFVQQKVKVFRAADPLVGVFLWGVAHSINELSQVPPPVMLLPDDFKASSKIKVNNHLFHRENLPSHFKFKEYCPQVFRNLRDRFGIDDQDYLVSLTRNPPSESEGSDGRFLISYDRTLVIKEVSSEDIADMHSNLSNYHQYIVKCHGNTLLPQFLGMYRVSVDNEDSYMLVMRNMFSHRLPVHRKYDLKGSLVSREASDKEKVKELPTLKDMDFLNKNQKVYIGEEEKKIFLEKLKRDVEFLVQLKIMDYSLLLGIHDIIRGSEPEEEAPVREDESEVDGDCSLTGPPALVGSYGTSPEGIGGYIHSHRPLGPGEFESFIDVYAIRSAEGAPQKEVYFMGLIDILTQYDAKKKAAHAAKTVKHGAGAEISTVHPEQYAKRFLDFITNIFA

[6] = target: Serine/threonine-protein kinase D1 (Homo sapiens) (UniProt Q15139); conditions: Compound concentration 1000.0 nM
[7] = target: Cyclin-dependent kinase 7 (Homo sapiens) (UniProt P50613); conditions: Compound concentration 1000.0 nM
[8] = target: Serine/threonine-protein kinase N1 (Homo sapiens) (UniProt Q16512); conditions: Compound concentration 1000.0 nM
[9] = target: Mitogen-activated protein kinase 8 (Homo sapiens) (UniProt P45983); conditions: Compound concentration 1000.0 nM
[10] = target: Mitogen-activated protein kinase kinase kinase 13 (Homo sapiens) (UniProt O43283); conditions: Compound concentration 1000.0 nM
[11] = target: Ribosomal protein S6 kinase alpha-3 (Homo sapiens) (UniProt P51812); conditions: Compound concentration 1000.0 nM
[12] = target: Mitogen-activated protein kinase 7 (Homo sapiens) (UniProt Q13164); conditions: Compound concentration 1000.0 nM
[13] = target: Serine/threonine-protein kinase MRCK alpha (Homo sapiens) (UniProt Q5VT25); conditions: Compound concentration 1000.0 nM
[14] = target: Mitogen-activated protein kinase kinase kinase 19 (Homo sapiens) (UniProt Q56UN5); conditions: Compound concentration 1000.0 nM
[15] = target: Calcium/calmodulin-dependent protein kinase type IV (Homo sapiens) (UniProt Q16566); conditions: Compound concentration 1000.0 nM
[16] = target: Protein kinase C iota type (Homo sapiens) (UniProt P41743); conditions: Compound concentration 1000.0 nM
[17] = target: Cyclin-dependent kinase 14 (Homo sapiens) (UniProt O94921); conditions: Compound concentration 1000.0 nM
[18] = target: Serine/threonine-protein kinase Nek11 (Homo sapiens) (UniProt Q8NG66); conditions: Compound concentration 1000.0 nM
[19] = target: Ribosomal protein S6 kinase alpha-5 (Homo sapiens) (UniProt O75582); conditions: Compound concentration 1000.0 nM
[20] = target: Serine/threonine-protein kinase PknB (Mycobacterium tuberculosis) (UniProt P9WI81); conditions: Compound concentration 1000.0 nM
[21] = target: Fibroblast growth factor receptor 4 (Homo sapiens) (UniProt P22455); conditions: Compound concentration 1000.0 nM
[22] = target: TGF-beta receptor type-2 (Homo sapiens) (UniProt P37173); conditions: Compound concentration 1000.0 nM
Sequence of TGF-beta receptor type-2 (Homo sapiens) (P37173 whole entry): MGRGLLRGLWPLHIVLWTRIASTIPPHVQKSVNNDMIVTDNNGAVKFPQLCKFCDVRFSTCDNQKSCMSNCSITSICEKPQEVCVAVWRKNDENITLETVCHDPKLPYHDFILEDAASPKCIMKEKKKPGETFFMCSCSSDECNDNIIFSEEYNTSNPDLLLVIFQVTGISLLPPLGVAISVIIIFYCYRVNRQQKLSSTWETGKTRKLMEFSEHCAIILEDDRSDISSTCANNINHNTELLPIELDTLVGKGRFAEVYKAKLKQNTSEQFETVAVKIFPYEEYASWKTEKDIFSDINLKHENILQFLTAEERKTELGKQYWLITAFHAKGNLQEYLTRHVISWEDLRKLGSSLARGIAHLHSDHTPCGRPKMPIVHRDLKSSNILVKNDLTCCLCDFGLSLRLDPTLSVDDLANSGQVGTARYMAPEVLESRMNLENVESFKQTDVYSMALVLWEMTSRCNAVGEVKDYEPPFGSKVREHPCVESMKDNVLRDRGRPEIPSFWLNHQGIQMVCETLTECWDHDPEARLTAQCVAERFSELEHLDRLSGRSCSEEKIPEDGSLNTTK

[23] = tested on: Tyrosine-protein kinase ABL1 (Homo sapiens), P00519 [T315I]; conditions: Compound concentration 1000.0 nM
[24] = target: Eukaryotic translation initiation factor 2-alpha kinase 1 (Homo sapiens) (UniProt Q9BQI3); conditions: Compound concentration 1000.0 nM
[25] = target: Serine/threonine-protein kinase PAK 3 (Homo sapiens) (UniProt O75914); conditions: Compound concentration 1000.0 nM
[26] = target: Death-associated protein kinase 2 (Homo sapiens) (UniProt Q9UIK4); conditions: Compound concentration 1000.0 nM
[27] = target: Wee1-like protein kinase (Homo sapiens) (UniProt P30291); conditions: Compound concentration 1000.0 nM
[28] = target: Death-associated protein kinase 3 (Homo sapiens) (UniProt O43293); conditions: Compound concentration 1000.0 nM
[29] = target: cGMP-dependent protein kinase 1 (Homo sapiens) (UniProt Q13976); conditions: Compound concentration 1000.0 nM
Sequence of cGMP-dependent protein kinase 1 (Homo sapiens) (Q13976 whole entry): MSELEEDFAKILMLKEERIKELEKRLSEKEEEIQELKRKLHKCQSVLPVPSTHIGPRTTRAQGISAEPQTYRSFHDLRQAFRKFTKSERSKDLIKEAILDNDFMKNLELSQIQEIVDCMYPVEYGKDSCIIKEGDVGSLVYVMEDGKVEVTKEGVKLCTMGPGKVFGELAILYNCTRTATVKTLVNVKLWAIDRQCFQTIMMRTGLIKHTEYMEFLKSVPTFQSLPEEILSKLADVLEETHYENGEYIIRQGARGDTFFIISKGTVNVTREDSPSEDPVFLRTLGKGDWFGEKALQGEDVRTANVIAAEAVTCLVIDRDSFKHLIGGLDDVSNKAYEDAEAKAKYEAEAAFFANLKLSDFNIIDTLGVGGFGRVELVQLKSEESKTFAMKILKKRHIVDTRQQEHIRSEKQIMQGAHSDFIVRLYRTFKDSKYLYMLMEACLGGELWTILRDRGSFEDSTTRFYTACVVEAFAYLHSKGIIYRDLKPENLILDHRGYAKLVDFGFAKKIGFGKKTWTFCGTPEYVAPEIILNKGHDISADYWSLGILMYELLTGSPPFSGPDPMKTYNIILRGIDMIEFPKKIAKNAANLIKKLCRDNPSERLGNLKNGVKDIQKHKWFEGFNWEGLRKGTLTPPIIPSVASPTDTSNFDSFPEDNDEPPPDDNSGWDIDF

[30] = target: Mitogen-activated protein kinase kinase kinase 20 (Homo sapiens) (UniProt Q9NYL2); conditions: Compound concentration 1000.0 nM
[31] = target: Tyrosine-protein kinase JAK2 (Homo sapiens) (UniProt O60674); conditions: Compound concentration 1000.0 nM
[32] = target: Discoidin domain-containing receptor 2 (Homo sapiens) (UniProt Q16832); conditions: Compound concentration 1000.0 nM
[33] = target: Activin receptor type-1-like (Homo sapiens) (UniProt P37023); conditions: Compound concentration 1000.0 nM
[34] = target: Rho-associated protein kinase 1 (Homo sapiens) (UniProt Q13464); conditions: Compound concentration 1000.0 nM
[35] = target: Phosphatidylinositol 3-kinase catalytic subunit type 3 (Homo sapiens) (UniProt Q8NEB9); conditions: Compound concentration 1000.0 nM
Sequence of Phosphatidylinositol 3-kinase catalytic subunit type 3 (Homo sapiens) (Q8NEB9 whole entry): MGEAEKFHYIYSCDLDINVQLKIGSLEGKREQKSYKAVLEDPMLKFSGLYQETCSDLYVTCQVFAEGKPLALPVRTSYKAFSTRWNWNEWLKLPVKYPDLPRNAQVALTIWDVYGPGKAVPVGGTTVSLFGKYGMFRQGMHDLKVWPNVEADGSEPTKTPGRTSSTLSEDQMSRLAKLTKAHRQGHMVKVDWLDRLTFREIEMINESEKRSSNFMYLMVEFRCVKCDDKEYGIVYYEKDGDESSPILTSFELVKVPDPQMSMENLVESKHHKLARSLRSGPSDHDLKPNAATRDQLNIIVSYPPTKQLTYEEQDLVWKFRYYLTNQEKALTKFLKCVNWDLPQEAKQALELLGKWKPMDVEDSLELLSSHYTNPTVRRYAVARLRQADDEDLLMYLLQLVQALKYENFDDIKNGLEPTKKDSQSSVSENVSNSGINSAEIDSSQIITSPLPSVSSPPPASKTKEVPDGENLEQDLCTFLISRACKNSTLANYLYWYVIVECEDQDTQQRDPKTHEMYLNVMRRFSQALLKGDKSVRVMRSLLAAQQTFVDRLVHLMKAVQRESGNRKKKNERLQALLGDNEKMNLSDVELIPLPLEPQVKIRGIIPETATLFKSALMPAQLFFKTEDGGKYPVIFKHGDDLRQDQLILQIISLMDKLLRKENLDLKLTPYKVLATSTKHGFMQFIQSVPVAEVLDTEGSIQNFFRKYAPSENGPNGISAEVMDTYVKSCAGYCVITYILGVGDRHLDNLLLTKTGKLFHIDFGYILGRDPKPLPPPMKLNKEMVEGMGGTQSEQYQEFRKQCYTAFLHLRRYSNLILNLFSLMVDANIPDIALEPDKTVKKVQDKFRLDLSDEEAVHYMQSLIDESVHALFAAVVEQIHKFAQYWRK

[36] = target: Interleukin-1 receptor-associated kinase 3 (Homo sapiens) (UniProt Q9Y616); conditions: Compound concentration 1000.0 nM
Sequence of Interleukin-1 receptor-associated kinase 3 (Homo sapiens) (Q9Y616 whole entry): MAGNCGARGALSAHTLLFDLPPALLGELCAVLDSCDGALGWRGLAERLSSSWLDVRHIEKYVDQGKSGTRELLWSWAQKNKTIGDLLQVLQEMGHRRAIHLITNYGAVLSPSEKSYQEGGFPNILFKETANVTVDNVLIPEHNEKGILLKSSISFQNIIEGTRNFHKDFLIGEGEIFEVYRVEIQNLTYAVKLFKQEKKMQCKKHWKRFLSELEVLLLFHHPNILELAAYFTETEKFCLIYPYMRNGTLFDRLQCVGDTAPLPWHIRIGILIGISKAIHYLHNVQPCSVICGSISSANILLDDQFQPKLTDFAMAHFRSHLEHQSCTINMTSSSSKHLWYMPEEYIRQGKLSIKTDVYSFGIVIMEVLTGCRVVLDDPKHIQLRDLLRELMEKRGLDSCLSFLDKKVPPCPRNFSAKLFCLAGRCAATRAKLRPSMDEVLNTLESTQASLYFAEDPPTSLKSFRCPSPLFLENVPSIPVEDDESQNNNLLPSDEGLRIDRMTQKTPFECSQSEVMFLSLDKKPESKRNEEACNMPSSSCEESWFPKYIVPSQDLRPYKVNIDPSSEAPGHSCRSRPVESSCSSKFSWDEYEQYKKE

[37] = target: Serine/threonine-protein kinase TBK1 (Homo sapiens) (UniProt Q9UHD2); conditions: Compound concentration 1000.0 nM
Sequence of Serine/threonine-protein kinase TBK1 (Homo sapiens) (Q9UHD2 whole entry): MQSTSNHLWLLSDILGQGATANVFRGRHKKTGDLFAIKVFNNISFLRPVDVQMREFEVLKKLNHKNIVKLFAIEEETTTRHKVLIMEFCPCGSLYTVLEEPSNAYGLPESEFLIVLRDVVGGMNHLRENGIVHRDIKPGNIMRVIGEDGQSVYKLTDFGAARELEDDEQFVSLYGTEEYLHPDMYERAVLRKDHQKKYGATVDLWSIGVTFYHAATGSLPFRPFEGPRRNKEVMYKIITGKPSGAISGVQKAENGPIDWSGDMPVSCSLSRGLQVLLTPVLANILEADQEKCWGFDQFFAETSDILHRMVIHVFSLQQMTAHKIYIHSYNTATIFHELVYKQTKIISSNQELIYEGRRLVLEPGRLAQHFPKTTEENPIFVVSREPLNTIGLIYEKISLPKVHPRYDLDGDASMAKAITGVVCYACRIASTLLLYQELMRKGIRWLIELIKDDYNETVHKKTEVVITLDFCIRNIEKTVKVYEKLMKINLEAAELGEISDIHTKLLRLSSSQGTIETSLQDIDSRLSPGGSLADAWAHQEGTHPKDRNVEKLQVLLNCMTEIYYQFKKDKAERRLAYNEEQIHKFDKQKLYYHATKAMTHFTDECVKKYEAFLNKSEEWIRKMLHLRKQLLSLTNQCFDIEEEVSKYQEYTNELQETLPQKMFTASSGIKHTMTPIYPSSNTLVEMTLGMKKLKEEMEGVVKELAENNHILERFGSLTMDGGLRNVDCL

[38] = target: Glycogen synthase kinase-3 alpha (Homo sapiens) (UniProt P49840); conditions: Compound concentration 1000.0 nM
[39] = target: Mitogen-activated protein kinase 12 (Homo sapiens) (UniProt P53778); conditions: Compound concentration 1000.0 nM
[40] = target: Serine/threonine-protein kinase PAK 2 (Homo sapiens) (UniProt Q13177); conditions: Compound concentration 1000.0 nM
[41] = target: Tyrosine-protein kinase Mer (Homo sapiens) (UniProt Q12866); conditions: Compound concentration 1000.0 nM
Sequence of Tyrosine-protein kinase Mer (Homo sapiens) (Q12866 whole entry): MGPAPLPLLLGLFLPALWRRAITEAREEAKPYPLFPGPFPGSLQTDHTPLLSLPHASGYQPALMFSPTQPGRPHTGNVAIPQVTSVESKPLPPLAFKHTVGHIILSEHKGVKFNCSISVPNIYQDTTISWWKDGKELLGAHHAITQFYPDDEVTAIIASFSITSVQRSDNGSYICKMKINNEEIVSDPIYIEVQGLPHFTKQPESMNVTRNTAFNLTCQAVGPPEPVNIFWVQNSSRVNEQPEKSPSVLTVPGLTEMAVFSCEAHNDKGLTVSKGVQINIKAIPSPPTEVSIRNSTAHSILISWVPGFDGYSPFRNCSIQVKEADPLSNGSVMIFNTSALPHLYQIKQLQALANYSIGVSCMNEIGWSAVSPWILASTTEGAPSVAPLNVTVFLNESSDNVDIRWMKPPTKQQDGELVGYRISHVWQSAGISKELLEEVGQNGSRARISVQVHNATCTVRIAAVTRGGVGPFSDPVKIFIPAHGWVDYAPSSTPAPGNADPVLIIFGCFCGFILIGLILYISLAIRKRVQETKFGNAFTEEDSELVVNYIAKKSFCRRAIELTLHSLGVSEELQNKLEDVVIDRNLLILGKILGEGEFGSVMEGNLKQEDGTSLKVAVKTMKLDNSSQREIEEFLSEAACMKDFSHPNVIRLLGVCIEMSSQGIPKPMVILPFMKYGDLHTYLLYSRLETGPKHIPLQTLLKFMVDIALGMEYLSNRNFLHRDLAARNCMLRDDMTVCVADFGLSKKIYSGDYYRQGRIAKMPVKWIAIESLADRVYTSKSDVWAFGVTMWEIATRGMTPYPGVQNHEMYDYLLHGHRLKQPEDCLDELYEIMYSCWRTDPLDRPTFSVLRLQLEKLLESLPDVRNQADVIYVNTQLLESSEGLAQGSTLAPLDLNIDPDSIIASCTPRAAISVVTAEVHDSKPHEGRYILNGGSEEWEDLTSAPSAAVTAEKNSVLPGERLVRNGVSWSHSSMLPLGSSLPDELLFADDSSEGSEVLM

[42] = target: Serine/threonine-protein kinase DCLK3 (Homo sapiens) (UniProt Q9C098); conditions: Compound concentration 1000.0 nM
[43] = target: Receptor-type tyrosine-protein kinase FLT3 (Homo sapiens) (UniProt P36888); conditions: Compound concentration 1000.0 nM
[44] = tested on: Mast/stem cell growth factor receptor Kit (Homo sapiens), P10721 [V559D,V654A]; conditions: Compound concentration 1000.0 nM
[45] = target: Cyclin-dependent kinase 16 (Homo sapiens) (UniProt Q00536); conditions: Compound concentration 1000.0 nM
[46] = target: Tyrosine-protein kinase receptor TYRO3 (Homo sapiens) (UniProt Q06418); conditions: Compound concentration 1000.0 nM

Structure (SMILES): CC(C)(C)OC(=O)N1CCCC1CNC1CCC(c2cc(F)ccc2F)(S(=O)(=O)c2ccc(Cl)cc2)CC1 (stereo unspecified) [GSI-NC]
- Ki [1]: 653 nM

Structure (SMILES): O=S(=O)(NC1CCC(c2cc(F)ccc2F)(S(=O)(=O)c2ccc(Cl)cc2)CC1)C(F)(F)F (stereo unspecified) [MRK-560]
- residual activity [2]: 69%
- residual activity [3]: 100%
- residual activity [4]: 100%
- residual activity [5]: 100%
- residual activity [6]: 100%
- residual activity [7]: 100%
- residual activity [8]: 100%
- residual activity [9]: 78%
- residual activity [10]: 91%
- residual activity [11]: 96%
- residual activity [12]: 92%
- residual activity [13]: 91%
- residual activity [14]: 84%
- residual activity [15]: 100%
- residual activity [16]: 100%
- residual activity [17]: 100%
- residual activity [18]: 100%
- residual activity [19]: 94%
- residual activity [20]: 91%
- residual activity [21]: 100%
- residual activity [22]: 100%
- residual activity [23]: 90%
- residual activity [24]: 100%
- residual activity [25]: 100%
- residual activity [26]: 96%
- residual activity [27]: 90%
- residual activity [28]: 97%
- residual activity [29]: 100%
- residual activity [30]: 92%
- residual activity [31]: 83%
- residual activity [32]: 100%
- residual activity [33]: 100%
- residual activity [34]: 84%
- residual activity [35]: 100%
- residual activity [36]: 98%
- residual activity [37]: 100%
- residual activity [38]: 87%
- residual activity [39]: 89%
- residual activity [40]: 100%
- residual activity [41]: 99%
- residual activity [42]: 100%
- residual activity [43]: 100%
- residual activity [44]: 88%
- residual activity [45]: 68%
- residual activity [46]: 70%
